# Patent publication US20260284079A1, “LIPID PRODRUGS OF ALLOPR[…] USES THEREOF” (Seaport Therapeutics, Inc., priority 2023, published 2026)
# Tests used:
# Assay type in all cases: in vivo, human
# [1] = Video-oculography (VOG), saccades; settings: day 1, all doses tested (250, 375, 500 mg)
# From the text: Video-oculography (VOG) is a non-invasive, visual method of measuring horizontal, vertical, and torsional components involved in eye tracking, making use of a head-mounted mask equipped with cameras. VOG was used to measure 3 assessment metrics: horizontal saccades (movement of eyes towards a point of fixation), horizontal anti-saccades (movement of eyes away from a point of fixation), and horizontal and vertical pursuits (fixation of eyes on a moving object).
# Binocular (both eyes) movements viewing were measured during the saccades test. During this 1-min trial, the visual target (small square) will jump from 0° to 10° to the right or to the left in a pseudorandom sequence. Duration of the target on screen vary pseudo-randomly from 1,500 to 2,000 ms to minimize anticipation of the subject. Then the visual target will be extinguished during 200 ms before the next move starting from the center. The participant is instructed to track the target on screen from center to side and from side to center without anticipation. The antisaccades test is identical to the saccades test in its procedure (with 10° jumps of the target) except that there is no extinction of the target. […]
# Binocular movements viewing were measured during the pursuit tests. […]
# [2] = TSST study safety and tolerability (Example 2)
# Procedure: (§1) A double-blind, placebo-controlled study was performed in 80 healthy participants to determine the effects of a single dose of Compound 1 in a validated and standardized behavioral challenge, the Trier Social Stress Test (TSST). The TSST is a reliable behavioral model used to examine the neurobiological response to acute stress in humans, whereby an acute stress (and associated acute stress response) is induced under experimentally controlled conditions. The TSST induces stress through public speaking. It incorporates social evaluation and unpredictability, by obliging the person to speak in front of an unresponsive audience and is further followed by a surprise mental arithmetic test. The TSST combines elements of a social-evaluative threat and uncontrollability to produce a consistent and robust physiological and psychological stress response in humans. On the day of the study, the participant was tasked with a speech prompt, for which they had 3 minutes to prepare. The participant was then required to present the speech for 5 minutes to a panel while under the pretense of being recorded. Following the speech, participants were given an unexpected mental arithmetic task. The TSST is more fully described in Allen A et al., Neurobiol. Stress (2017), February; 6:113-126.
# (§2) The study included a validation cohort and a randomized cohort. The validation cohort (n=10) was given placebo for the purposes of validating the TSST and study endpoints. The randomized cohort […] were randomized and stratified by sex to placebo or 375 mg of Compound 1 in a 1:1 ratio. The cohorts are described in Table 14. An overview of the TSST study design is also depicted in FIG. 4C.
# (§3) The objective of the study was to evaluate the efficacy of Compound 1 vs. placebo in blunting the response to endpoints measured during and after the TSST procedure. The primary efficacy endpoint was the change from baseline (before TSST procedure) to the peak (maximum change) in salivary cortisol levels as measured before, during, and after the TSST procedure. The primary outcome for determining this was salivary cortisol levels. The key secondary outcomes were be the Numerical Rating Scale (NRS) for stress, anxiety, fear, embarrassment, and excitement. Additional secondary outcomes were the State Trait Anxiety Index (STAI), and blood pressure. Safety and tolerability (i.e., incidence, severity, and duration of treatment-emergent adverse events (TEAEs), serious adverse events (SAEs), and incidence of other clinically relevant signs) were also monitored. Prior to the TSST, a post-dose sample was collected for pharmacokinetic analysis.
# [3] = Columbia-Suicide Severity Rating Scale (C-SSRS); settings: parts 1-3
# Procedure: The Columbia-Suicide Severity Rating Scale (C-SSRS) is a validated tool designed to quantify the severity of suicidal ideation and behavior. This scale was administered by individuals who have received training in its administration, as described in further detail at https://cssrs.columbia.edu/the-columbia-scale-c-ssrs/about-the-scale/.
# [4] = Body sway (posturography); settings: MAD
# Procedure: Body Sway is assessed as a measure of a subject's slight postural movements in order to retain balance either statically in a neutral position or dynamically while in motion. Body Sway is typically measured by total displacement of the center of body mass relative to the base of support over time. Posturography is an objective, sensitive, reliable, and non-invasive method designed to assess the effects of drugs and alcohol on body sway and vigilance. Body sway is recorded using a computerized force-platform. Using specific positioners, bare feet subjects are asked to stand still and motionless, looking at a cue placed in front of them. Measurement of body sway (one minute with eyes open and one minute with eyes closed) is recorded as recommended by the International Society of Postuography. The length and area of the postural oscillations are then calculated.
# [5] = tested on: salivary cortisol levels; experiment: Trier Social Stress Test (TSST), salivary cortisol (Example 2)
# Procedure: as §1, §2
# Compound 1 was formulated in combination with excipients Peceol™ (glyceryl monooleate), Kolliphor® RH40 (macrogolglycerol hydroxystearate) and super-refined sesame oil as a clear to yellow viscous solution. Each gram of formulation contains 300 mg of Compound 1, 189 mg of Peceol™, 336 mg Kolliphor® RH40, and 175 mg of super-refined sesame oil. To prepare the final dosage, the required quantity is manually filled into size 17.5 oblong capsules. The placebo contained vehicle only, i.e., the above formulation without Compound 1.
# as §3
# To normalize for food effects, participants were served a standardized meal to be consumed approximately 30 minutes prior to dosing with Compound 1. Compound 1 was administered with 240 mL of RT water ~3-4 hours prior to the start of the TSST.
# Cortisol levels (including, for example, salivary cortisol levels) are a robust and sensitive marker of stress and the stress hormone response. Salivary cortisol concentrations were collected and measured throughout the study, with the primary endpoint being the maximum change from baseline (pre-TSST).
smiles,measurement,setting,value
CCCCCCCC(=O)OCC(COC(=O)CCCCCCC)OC(=O)CC(C)CC(=O)OCOC(=O)O[C@@H]1CC[C@@]2(C)[C@@H](CC[C@@H]3[C@@H]2CC[C@]2(C)[C@@H](C(C)=O)CC[C@@H]32)C1 (stereo partly drawn) [Compound 1],time of maximum drop of saccade peak velocity,[1],4 hour post-dose
same,tolerability in the TSST study,[2]; single 375 mg dose,well tolerated
same,TEAE dizziness,"[2]; single 375 mg, placebo 3%",20%
same,TEAE headache,"[2]; single 375 mg, placebo 7.7%",7.3%
same,TEAE somnolence,"[2]; single 375 mg, placebo 13%",29%
same,suicidal ideation or suicidal behavior,[3],No subjects across all parts (1-3) reported any suicidal ideation or suicidal behavior
same,effects on body sway,[4]; day 1,Slight effects
same,effects on body sway,[4]; day 7,absent
same,"decrease in salivary cortisol levels versus placebo, maximum non-transformed mean",[5]; 375 mg,~ 2.2 ×
same,time during which blunting of salivary cortisol was significantly different from placebo,[5]; 375 mg,up to 30 minutes post-end of TSST
same,"treatment effect size versus placebo, Cohen's d",[5]; 375 mg,0.72
same,reduction in salivary cortisol levels post-TSST,"[5]; 375 mg, 10 minutes post-TSST",62.8%
same,reduction in salivary cortisol levels post-TSST,"[5]; 375 mg, 60 minutes post-TSST",45.5%
same,mean reduction in salivary cortisol levels post-TSST,"[5]; 375 mg, across all time points",54.4%
same,"blunting of increases in salivary cortisol levels, LSMean change from baseline (pre-TSST)",[5]; single 375 mg oral dose ~3-4 hours before TSST,partial blunting
